Patent US5352667A, “Non-peptidic surrogates of the Arg-Gly-Asp sequence and pharmaceutical compositions comprising them” (priority 1991, dated 1994)

Columns and labels:
[1] = system: CD4^+ T cell adhesion to 120 kD fragment of FN; test: Inhibition of activated CD4+ T cell adhesion to 120 kD fragment of FN; format: cell-based, human; details: for % inhibition of adhesion of activated CD4^+ T cell to 120 kD fragment of FN / % Adhesion of activated CD4^+ T cell to 120 kD fragment of FN: 0.2 mM peptides and surrogates, mAb anti-CD29 1/200, anti-VLA5 1/400 diluted; for % inhibition of adhesion of activated CD4^+ T cell to 120 kD fragment of FN: * P<0.05; for % Adhesion of activated CD4^+ T cell to 120 kD fragment of FN: PMA activated, none 43 ± 4; for T cell adhesion to FN, in words: 0.2 mM, 120 kD fragment of FN
Experimental: (§1) To examine the adhesive properties of the T cells, 1 μg/50 μl/well of either fibronectin (FN) (Sigma), the 120 kD cell attachment fragment of FN (Telios Pharm. Inc. San Diego, CA), or laminin (LN) (Sigma), were added to 96-flat bottom microtiter-wells for 12 h. Unbound proteins were then washed away and remaining binding sites were blocked with 0.1% bovine serum albumin (BSA) added to the wells for 2 h and washed. CD4+T cells were purified from peripheral blood mononuclear leukocytes obtained from healthy human donors. The mononuclear cells were isolated using a Ficoll gradient, washed and incubated in RPMI supplemented with 10% fetal calf serum (FCS) and antibiotics in petri dishes at 37° C. humidified CO2 incubator. After 2 h, the non-adherent cells were isolated and applied on nylon-wool columns (1.5 h). CD4^+ T cells were then negatively selected by exposure of the cells to a cocktail of anti-CD8, CD19, and CD14 monoclonal antibodies (mAb) conjugated to magnetic-beads (Advanced Magnetics, MA). Unbound cells were recovered and their phenotype was examined. Purity of the CD4^+ T cells was always greater than 92% as determined by FACScan.
(§2) The purified CD4^+ T cells were radioactively labeled with ^51 [Cr](New England Nuclear) in RPMI +20% FCS for 2 h and washed. The cells were counted and seeded (0.2×10^5 cells) on the precoated microtiter wells in the presence or the absence of the various inhibitors. Coating was made either with FN, the 120 kD cell-attachment fragment of FN or with control adhesive protein laminin (LN). The inhibitors were various surrogates according to the invention, other test molecules or mAb. After 30 min incubation (in […] CO2 -- humidified incubator) the T cells were activated by 10 ng/ml phorbol myristate acetate (PMA) and the percent of T cells attached to the protein substrates was measured. Unbound cells were washed away after 20-30 min, the bound cells were lysed and their radioactivity was measured using radioactive counter. The amount of the radioactivity of the cell lysates represent the matrix-adherent cells and percent binding was calculated in comparison to the total radioactivity added to the wells. Activated T cell adhesion to control wells or to wells coated with BSA was always 2-5%; the level of adhesion of the non-activated T cells was always below 5%. Where indicated, 1/200 diluted mAb anti-CD29 (anti-β1 mAb Serotec, GB), or 1/400 diluted anti-VLA5 (the β1α5 FN-integrin receptor) mAb (Telios Pharm. Inc. San Diego), or 0.2 mM of RGD, GRGDSPK or GRGESP peptides (Sigma) were used. The tested non-peptidic surrogates, 0.2 mM in PBS, were used to pretreat the T cells for 15 min before seeding the cells *, P<0.05. The results shown in Tables 1A, 1B and 1C represent data obtained from several experiments that produced essentially similar results.
(§3) The four RGD surrogates, AC-4.

[2] = system: CD4^+ T cell adhesion to LN; test: Inhibition of activated CD4+ T cell adhesion to laminin (LN); format: cell-based, human; details: for % inhibition of adhesion of activated CD4^+ T cell to LN / % Adhesion of activated CD4^+ T cell to LN: 0.2 mM peptides and surrogates, mAb anti-CD29 1/200, anti-VLA5 1/400 diluted; for % inhibition of adhesion of activated CD4^+ T cell to LN: * P<0.05; for % Adhesion of activated CD4^+ T cell to LN: none 55 ± 5
Experimental: as §1, §2, §3

[3] = system: B16-melanoma cells adhesion to FN; test: Inhibition of B16-melanoma cell adhesion to FN; format: cell-based, murine; details: surrogates 0.2 mM; for % inhibition of adhesion of B16-melanoma cells to FN: * P<0.05; for % Adhesion of B16-melanoma cells to FN: none 75 ± 5
Experimental: (§4) To examine the adhesive properties of tumor cells, 1 μg/50μ/well of FN or 0.3μg/well of VN were added to 96-flat bottom microtiter wells for 12 h. Unbound proteins were then washed away and remaining binding sites were blocked with 0.1% BSA added to the wells for 2 h and washed. Murine B16-melanoma F-1 cells were metabolically labeled with ^35 S-methionine (New England Nuclear) for 2 h, chased for 18 h and extensively washed. The cell suspension was resuspened in RPMI supplemented with 1% BSA containing 1 mM CaCl2 and MgCl2. Tumor cell adhesion to control wells or to wells coated with BSA was always 2-5%. The tested non-peptidic surrogates, 0.2 mM in PBS, were used to pretreat the tumor cells for 15 min before seeding the cells *, P<0.05.
(§5) In a first series of experiments, the potential inhibitory action of the RGD surrogate SF-6,5 on adhesion of B16 melanoma cells to FN or VN was compared to that of the RGE surrogate SF-6,6 and to that of RGD, GRGDSPK and GRGESP peptides.
In a further set of experiments, the inhibitory activity of the RGD surrogates SF-6,5 and NS-11 on the adhesion of B16 murine melanoma cells to FN was compared to that of the GRGDSP peptide.

[4] = system: B16-melanoma cells adhesion to VN; test: Inhibition of B16-melanoma cell adhesion to VN; format: cell-based, murine; details: surrogates 0.2 mM; for % inhibition of adhesion of B16-melanoma cells to VN: * P<0.05; for % Adhesion of B16-melanoma cells to VN: none 68 ± 5
Experimental: as §4, §5

[5] = target: T1, platelet GPIIb-IIIa receptor (Homo sapiens, UniProt P05106+P08514); test: Inhibition of ADP-induced platelet aggregation (platelet rich plasma); format: cell-based; details: FIG. 4; fixed sub-saturating 0.5 mM / 10μg/ml; 4 experiments
T1 construct: Platelet concentrates were prepared from human whole blood; endogenous in cells; host or cells: human platelets in platelet rich plasma
T1 sequence (P08514 32-887 limits assumed): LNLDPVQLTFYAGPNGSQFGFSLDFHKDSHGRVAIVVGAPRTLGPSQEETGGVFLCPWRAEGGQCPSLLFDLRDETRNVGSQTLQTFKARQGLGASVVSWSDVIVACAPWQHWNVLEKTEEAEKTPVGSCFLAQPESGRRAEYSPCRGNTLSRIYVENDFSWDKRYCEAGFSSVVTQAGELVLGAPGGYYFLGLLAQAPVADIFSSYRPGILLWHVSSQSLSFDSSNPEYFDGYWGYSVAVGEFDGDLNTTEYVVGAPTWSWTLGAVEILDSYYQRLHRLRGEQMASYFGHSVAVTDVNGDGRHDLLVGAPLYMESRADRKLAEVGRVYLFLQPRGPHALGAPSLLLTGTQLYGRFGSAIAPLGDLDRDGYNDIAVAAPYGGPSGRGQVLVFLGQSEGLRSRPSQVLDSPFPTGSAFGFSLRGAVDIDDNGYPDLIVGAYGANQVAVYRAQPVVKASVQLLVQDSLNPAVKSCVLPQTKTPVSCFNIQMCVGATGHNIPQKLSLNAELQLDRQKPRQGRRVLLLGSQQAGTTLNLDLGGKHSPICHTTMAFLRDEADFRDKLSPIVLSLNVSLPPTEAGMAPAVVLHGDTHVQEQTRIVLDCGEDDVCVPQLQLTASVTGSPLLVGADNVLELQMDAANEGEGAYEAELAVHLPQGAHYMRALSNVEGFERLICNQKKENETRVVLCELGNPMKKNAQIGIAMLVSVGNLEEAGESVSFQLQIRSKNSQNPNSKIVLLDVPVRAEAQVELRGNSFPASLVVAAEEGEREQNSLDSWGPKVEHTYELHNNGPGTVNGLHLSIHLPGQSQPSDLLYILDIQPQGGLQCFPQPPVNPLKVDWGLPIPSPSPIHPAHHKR
T1 sequence (P08514 891-1039 limits assumed): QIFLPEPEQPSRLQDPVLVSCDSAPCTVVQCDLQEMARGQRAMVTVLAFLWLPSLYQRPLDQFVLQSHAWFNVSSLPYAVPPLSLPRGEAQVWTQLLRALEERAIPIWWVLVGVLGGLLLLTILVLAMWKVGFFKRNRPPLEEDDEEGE
T1 sequence (P05106 27-788): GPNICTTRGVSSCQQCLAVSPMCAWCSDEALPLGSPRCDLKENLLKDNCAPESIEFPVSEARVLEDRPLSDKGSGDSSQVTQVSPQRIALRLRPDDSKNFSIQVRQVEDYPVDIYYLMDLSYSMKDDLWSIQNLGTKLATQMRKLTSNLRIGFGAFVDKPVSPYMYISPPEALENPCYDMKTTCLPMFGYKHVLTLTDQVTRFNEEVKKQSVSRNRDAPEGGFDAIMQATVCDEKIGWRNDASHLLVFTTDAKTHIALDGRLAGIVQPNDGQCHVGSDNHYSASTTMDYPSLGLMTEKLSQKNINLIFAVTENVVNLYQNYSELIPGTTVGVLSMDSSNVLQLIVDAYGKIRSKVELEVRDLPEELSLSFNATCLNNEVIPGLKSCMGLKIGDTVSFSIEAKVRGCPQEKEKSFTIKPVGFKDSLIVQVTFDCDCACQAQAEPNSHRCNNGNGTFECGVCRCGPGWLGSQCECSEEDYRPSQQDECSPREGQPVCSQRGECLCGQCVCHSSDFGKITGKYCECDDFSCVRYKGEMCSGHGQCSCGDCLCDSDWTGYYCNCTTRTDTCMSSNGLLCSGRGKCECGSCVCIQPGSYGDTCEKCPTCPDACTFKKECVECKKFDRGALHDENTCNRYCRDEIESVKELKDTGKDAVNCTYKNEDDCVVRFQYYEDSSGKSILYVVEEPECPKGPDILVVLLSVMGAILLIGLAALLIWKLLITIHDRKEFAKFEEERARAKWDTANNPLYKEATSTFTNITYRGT
Experimental: To investigate the inhibitory role of the RGD analogues on adhesion, the platelet GPIIb-IIIa receptor which mediates platelet aggregation upon activation was used as a model.
Platelet concentrates were prepared from human whole blood in 10% adenine-citrate-dextrose in Fenwall bags (Baxter Travenol, Israel) followed by standard AABB protocol. Platelet rich plasma was prepared by centrifugation (2500 rpm for 5 min). Samples of platelets were counted in a Minos AST Cell Counter (Levoiselle, France). Cell aggregation was induced by […] and monitored at […] in a 4-channel Aggregometer (Bio-Data, Hatboro, Pa.). To evaluate the effect of the various RGD peptides and the peptide analogues, the platelet rich plasma was pre-incubated with the various inhibitors for 10 min at 37° C. with 10μsolutions followed by the induction of aggregation.
To examine the specificity of the inhibitory effect of the RGD-analogues on platelet aggregation, the cells were treated with various peptidic (RGD and GRGDSP) and non-peptidic (SF-6,6, SF-6,5 and AC-15) RGD analogues used at a fixed sub-saturating concentration of 0.5 mM.
An in vitro assay as described in Example 17 was carried out with the compound NS-11 to examine its ability to interfere with platelet aggregation, and compared it to the SF-6,5 surrogate.
Platelet rich plasma (PRP) was prepared from acid/citrate/dextrose anti-coagulated fresh human blood by differential centrifugation. Platelet aggregation was induced by […] and monitored at 695 nm by a 4-channel Aggregometer (Bio-Data, PA). To evaluate the effect of the RGDS peptide and the NS-8, NS-11 and NS-15 analogs, the PRP was preincubated with the inhibitors for 10 minutes at 37° C., prior to the induction of aggregation. […] In fact, 50% inhibition of platelet aggregation was achieved using a 30-fold lower concentration of NS-11 than that of RGDS.

[6] = system: CD4^+ T cell adhesion to FN; test: Inhibition of activated CD4+ T cell adhesion to FN; format: cell-based, human; details: Table 1B, surrogates 0.2 mM; for % Inhibition of adhesion: CD4^+ T cell to FN; for % Adhesion of activated CD4^+ to FN: none 65
Experimental: as §1
as §2, with “The tested non-peptidic surrogates, 0.2 mM in PBS, were used to pretreat the T cells for 15 min before seeding the cells *, P<0.05.” left out
In a second series of experiments, FN was used in the adhesion assay carried out with the RGD surrogates NS-8, NS-11 and NS-15 in comparison to RGDS peptide.
In a third series of experiments, FN was used in the adhesion assay with the surrogates SF-6,5 and NS-11 and compared to the peptide GRGDSP.

Compound	% inhibition of adhesion of activated CD4^+ T cell to 120 kD fragment of FN [1]	% Adhesion of activated CD4^+ T cell to 120 kD fragment of FN [1]	T cell adhesion to FN, in words [1]	% inhibition of adhesion of activated CD4^+ T cell to LN [2]	% Adhesion of activated CD4^+ T cell to LN [2]	% inhibition of adhesion of B16-melanoma cells to FN [3]	% Adhesion of B16-melanoma cells to FN [3]	% inhibition of adhesion of B16-melanoma cells to VN [4]	% Adhesion of B16-melanoma cells to VN [4]	Inhibition of platelet aggregation at fixed concentration, in words [5]	% Inhibition of adhesion [6]	% Adhesion of activated CD4^+ to FN [6]	T cell adhesion to LN, in words ([2]; 0.2 mM)
Arg-Gly-Asp [RGD]	12%	38 ± 3%	specifically inhibited	0%	57 ± 3%	7%	70 ± 3%	0%	66 ± 6%	not an effective inhibitor			
N=C(N)NCCCCC(=O)NCC(=O)NCCC(=O)O [AC-4, 4,7-diaza-5,8-dioxo-12-quanidino-dodecanoic acid]	47%	16 ± 3%	inhibited T cell adhesion to FN	0%	57 ± 4%								
N=C(N)NCCCCC(=O)NCCCCCC(=O)O [AC-15, 7-aza-8-oxo-12-quanidino-dodecanoic acid]	19%	35 ± 5%	inhibited T cell adhesion to FN	0%	52 ± 4%					even higher than that of the GRGDSPK peptide			
N=C(N)NCCCCC(=O)N1CCCCC1C(=O)NCCC(=O)O (stereo not shown) [NS-8]											31%	45%	
N=C(N)NCCC(=O)Nc1cccc(C(=O)NCCC(=O)O)c1 [NS-15]											59%	27%	
RGDS [reference compound]											67%	22%	
N=C(N)NCCCC(=O)NCCC(=O)NCCC(=O)O [AC-14, 4,8-diaza-5,9-dioxo-12-quanidino-dodecanoic acid]	42%	25 ± 4%	inhibited T cell adhesion to FN	0%	55 ± 6%								
NCCCCCC(=O)NCCCCC(=O)O [SFN-70, reference compound]	0%	42 ± 5%	did not inhibit T cell adhesion to both FN and LN	0%	49 ± 6%								did not inhibit T cell adhesion to both FN and LN
GRGESP	0%	46 ± 3%		0%	52 ± 3%	0%	73 ± 5%	0%	66 ± 8%				
